Laboratory results taken from patent US11390661B2, “HCMV entry inhibitors” (priority 2016, dated 2022).

Experiments:
HSV-1 strain F = experiment: Inhibition of HSV infection (specificity control); assay type: cell-based; conditions: data not shown
Method: Infection efficiencies were determined by immunofluorescence staining for viral proteins. For fixation and permeabilization the cells were incubated with 80% acetone for 5 min. For HCMV infected cells the immediate early proteins pUL122/123 were detected with a mouse monoclonal (clone E13, Argene) and visualized using a Cy3 conjugated goat anti-mouse secondary antibody (Jackson Immuno Research). HSV infected cultures were stained 6 h post infection for ICP0 using a mouse monoclonal (clone 11060, Santa Cruz) and goat anti-mouse AF488 (life technologies). DAPI was used to locate nuclei. Infection rates were determined by counting the number of cell nuclei positive for the respective viral protein, as well as the total number of nuclei per image. For each condition three images were evaluated.

HCMV TB40E = experiment: Post adsorption inhibition on HFFs with or without PEG fusion; assay type: cell-based, Human cytomegalovirus
Method: For the analysis of post adsorption inhibition, HFFs were seeded at a density of 40,000 per well on IBIDI plates and incubated for 1 day before infection. Infectious supernatants of TB40E which were produced within 24 hours were cleared by centrifugation. Two identical plates were treated as follows: Cells and virus dilutions were precooled on ice for 15 min before attachment of the virus was allowed on ice for 1 h. The virus containing medium was exchanged by pre-cooled MEM with or without 200 ng/ml PDGFR-alpha-Fc. After 2 h incubation of the inhibitor with the cells on ice, one plate was directly shifted to 37° C., whereas the other cells were treated with pre-warmed 50% PEG (Roche) for 30 sec. The PEG was washed off by five times washing with pre-warmed PBS. Supplied with pre-warmed MEM containing again 200 ng/ml PDGFR-alpha-Fc, the cells were then incubated at 37° C. After 2 h incubation the medium was exchanged on PEG-treated and untreated cells and infection was allowed to proceed for 24 h before infection efficiencies were assessed by immediate early staining. Efficient PEG fusion was controlled visually by detection of syncytia.
HCMV virus particles were adsorbed to HFFs for 1 h on ice. The virus containing medium was then exchanged by medium containing PDGFR-alpha-Fc at a concentration of 200 ng/ml. […]

HCMV = experiment: Neutralization of cell-free HCMV particles / inhibition of HCMV entry in cell culture; assay type: cell-based, Human cytomegalovirus
Method: Infectious cell free HCMV preparations (corresponding to a multiplicity of infection of 1) are pre-incubated with the substance (at variable concentrations) for 2 h at 37° C. The pre-incubated mixture of HCMV and substance is added to cell cultures of choice, including at least a culture of human primary fibroblasts and a culture of human endothelial cells. Cells are incubated with the mixture for 2 h at 37° C. The mixture of HCMV and substance is then replaced with the appropriate cell culture medium and cells are further incubated for at least 16 h at 37° C. HCMV infection of the cells is detected by immunostaining of HCMV immediate early antigens (pUL122/123) with indirect immunofluorescence. The ratio of HCMV-IE antigen-positive cells per total cells is calculated as a readout for the efficiency of viral entry.

[1] = system: TB40-BACKL7-UL32EGFP-UL100mCherry; experiment: Adsorption and penetration of dual fluorescent HCMV particles on HFFs; assay type: cell-based, Human cytomegalovirus; conditions: 100 ng/ml
Method: To distinguish between adsorption and penetration of viral particles the inventors made use of dual fluorescent HCMV TB40-BACKL7-UL32EGFP-UL100mCherry (Sampaio 2013). HFFs and HECs were seeded at a density of 40,000 cells per well on gelatin-coated MIDI plates. Overnight produced cell-free infectious supernatant of the fluorescent virus was pre-incubated with PDGFR-Fcs for 2 h at 37° C. Before addition of the mixture the cells were pre-incubated with MEM for 30 min. […] After fixation with acetone, the EGFP signal of pUL32-EGFP was enhanced using mouse-anti-GFP (clone 3E6, Invitrogen) and Alexa488-anti-mouse (Life Technologies). DAPI (4′,6-diamidino-2-phenylindole) was added to mark the cell nuclei. The number of mCherry and EGFP positive particles which are enveloped was compared to the number of particles which were only green per cell. These […] particles have lost their UL100mCherry containing envelope, presumably by fusion with cellular membranes.
To further investigate, which of the initial steps of infection are blocked, the inventors performed a series of experiments that allowed discriminating between adsorption and penetration. They used the dual fluorescent virus TB40-BACKL7-UL32EGFP-UL100mCherry (Sampaio 2013) as it allows to discriminate between enveloped (EGFP-positive and mCherry positive) and non-enveloped particles (only EGFP positive). […]

HCMV particles = experiment: Binding of chimeric receptors (Fc-fusion proteins) to HCMV particles; parameters: species or system Human cytomegalovirus
Method: To assess the binding of Fc-Proteins to virus particles, HFFs were seeded at a density of 40,000 cells per well on IBIDI plates 1 day prior to infection. Virus preparations were pre-incubated with Fc-fusion proteins at a final concentration of 500 ng/ml for 2 h at 37° C. The virus/Fc-protein mixtures were incubated with the cells for 1.5 h on ice. Before fixation with 80% acetone, the cells were washed once with MEM. For staining of viral particles mouse hybridoma recognizing the abundant viral protein pp150 (generously provided by W. Britt, Sanchez 2000) used.
The inventors tested this by staining of adsorbed virus particles with the Fc-fusion proteins. […] Virus particles were stained for the capsid protein pp150 and bound Fc-fusion proteins.
The inventors analyzed the mode of inhibition by PDGFR-alpha-Fc. For this, the binding of different concentrations of the fusion protein was quantified by assessing the particle intensities after staining with anti-human antibody (FIG. 5). […] (FIGS. 4 and 5).

Question: What does the source list for “PDGFR-alpha-Fc: recombinant Fc-fusion protein of the PDGFR-alpha extracellular domain, obtained from R&D (6765-PR-050)”?
Answer: effect on HSV infection (HSV-1 strain F): not affected; infectivity of already adsorbed viruses (reduced to) (HCMV TB40E; 200 ng/ml added post adsorption, HFFs): 50%; post adsorption inhibition after addition of PEG (HCMV TB40E; 200 ng/ml, 50% PEG 30 sec): completely rescued; EC50 of binding to and neutralizing cell-free HCMV particles (HCMV): 0.01 to 0.05 µg/mL; attachment to and fusion with cells of treated particles (HCMV): reduced attachment to and reduced fusion with cells; effect when applied post-attachment (HCMV): effective; reduction of adsorption on HFFs [1]: 50%; reduction of penetration of HFFs (less efficient) [1]: 75%; EC50 of binding to HCMV particles (HCMV particles; particle intensities after anti-human antibody staining): 0.108 µg/mL; binding of Fc-fusion protein to virus particles (anti-human antibody staining) (HCMV particles; particles pre-incubated with Fc-fusion protein, attached to cells on ice): binds to the virus
